Data on 3 compounds can be found in patent US8575382B2, “Low molecular weight pharmacological activity modulators” (“Ivy Pharm” LLC, priority 2009, dated 2013).

For data set [1], the system named is A431 line human epidermoid carcinoma cells. Put plainly: Proliferative activity and death of A431 cells (cell count, propidium iodide flow cytofluorimetry). It is filed as cell-based.
For data set [2] the test system is unchanged. The description is as above. It is filed as cell-based. To be noted: for Proportion of dead cells / Total cells: A431; for effect on the proliferative activity of A431 cells (in words): summary of Table 2. The method, then: The number of living and dead cells in a culture was determined after 24 and 48 hours.
A431 line human epidermoid carcinoma cells, obtained from the All-Russian Cell Culture Collection (Russian Academy of Sciences Institute of Cytology, St. Petersburg).
Cells are cultured in a CO2 incubator (New Brunswick Scientific) at +37° C. and with a CO2 content of 5%. Cells are grown in these conditions to a monolayer culture and are exposed to the action of the test compounds.
The DMEM medium (OOO PanEko, Moscow) with the addition of gentamicin K (80 mg/l), L-glutamine (300 mg/l) and fetal serum (PAA, Austria) to a final concentration of 10%, is used for culturing cells. Cells are transferred to a medium with a reduced serum content of 0.5% 24 hours before commencing an experiment.
The cells were then suspended by pipetting with an automatic pipette and were combined with the previously collected medium. Samples were centrifuged at room temperature for 5 min at 400 g, the supernatant was removed and the deposit was resuspended in pH 7.4 PBS phosphate-salt buffer.
Propidium iodide was added to a suspension of cells to a concentration of 50 μg/ml 5-10 min before measuring in a Bruker ACR 1000 flow cytofluorimeter. This stain is able to penetrate through a damaged cell membrane, and stained cells are dead.

Data set [3] is described as follows: Solubility of the crystalline coordination compound. It is filed as physicochemical. The method, then:
[drawing 10] […] (1.811 mmole) of AgNO3, dissolved in the minimum amount of water, are added to a suspension of 300 mg (0.904 mmole) of Pd(2,2′-dipy)Cl2 in 15 ml of water. The mixture is acidified with 0.5 ml of concentrated HNO3, homogenized in an ultrasound bath for 15 min and filtered. […] (0.905 mmole) of L-cysteine (cys), dissolved in the minimum amount of water, are added to the filtrate. The reaction mixture is evaporated in air at room temperature. […] Yield 70-75%.

Where [4] appears, read: AG1478 0.75 μg/ml 15 min before EGF 200 ng/ml, 24 hours.
The mark [5] stands for this setting: AG1478 0.75 μg/ml 15 min before EGF 200 ng/ml, 48 hours.
Where [6] appears, read: AG1478 1.0 μg/ml 15 min before EGF 200 ng/ml, 24 hours.
[7] abbreviates: AG1478 1.0 μg/ml 15 min before EGF 200 ng/ml, 48 hours.
[8] abbreviates: AG1478 2.5 μg/ml 15 min before EGF 200 ng/ml, 24 hours.
Setting [9] is: AG1478 2.5 μg/ml 15 min before EGF 200 ng/ml, 48 hours.
Setting [10] is: AG1478 5.0 μg/ml 15 min before EGF 200 ng/ml, 24 hours.
The mark [11] stands for this setting: AG1478 5.0 μg/ml 15 min before EGF 200 ng/ml, 48 hours.
The mark [12] stands for this setting: Table 2, age of culture 0 hours, cysteine […], C—Pd […], C—Pd:C […], EGF 200 ng/ml.
The mark [13] stands for this setting: Table 2, age of culture 24 hours, cysteine […], C—Pd […], C—Pd:C […], EGF 200 ng/ml.
[14] abbreviates: Table 2, age of culture 48 hours, cysteine […], C—Pd […], C—Pd:C […], EGF 200 ng/ml.

Take `COc1cc2ncnc(Nc3cccc(Cl)c3)c2cc1OC` [AG1478, tyrphostin AG 1478]: the Total cells in data set [1] (AG1478 0.75 μg/ml 15 min before EGF 200 ng/ml, 0 hours) was 10000 mL⁻¹; in data set [2] (setting [4]) it was 48100 mL⁻¹; in data set [2] (setting [5]) it was 70800 mL⁻¹; in data set [2] (AG1478 1.0 μg/ml 15 min before EGF 200 ng/ml, 0 hours), 10000 mL⁻¹; in data set [2] (setting [6]) it was 47100 mL⁻¹; in data set [2] (setting [7]) it was 65700 mL⁻¹. For the same compound, the Total cells is 10000 mL⁻¹ in data set [2] (AG1478 2.5 μg/ml 15 min before EGF 200 ng/ml, 0 hours); 39400 mL⁻¹ in data set [2] (setting [8]); 61100 mL⁻¹ in data set [2] (setting [9]); 10000 mL⁻¹ in data set [2] (AG1478 5.0 μg/ml 15 min before EGF 200 ng/ml, 0 hours); 6400 mL⁻¹ in data set [2] (setting [10]); 2100 mL⁻¹ in data set [2] (setting [11]). Moreover, the “Proportion of dead cells” value in data set [2] (setting [4]) is listed as 20%; in data set [2] (setting [5]), 25%; in data set [2] (setting [6]), 23%; in data set [2] (setting [7]), 23%; in data set [2] (setting [8]), 27%; in data set [2] (setting [9]), 30%. Besides, the results for the “Proportion of dead cells” value in data set [2] (setting [10]) and in data set [2] (setting [11]) were 29% and 41%, respectively.
With `N[C@@H](CS)C(=O)O` [Cysteine, cysteine], the figures for the Total cells in data set [1] (setting [12]), in data set [2] (setting [13]) and in data set [2] (setting [14]) were 10000 mL⁻¹, 14700 mL⁻¹ and 23500 mL⁻¹, respectively. Also, the figures for the “Proportion of dead cells” value in data set [2] (setting [13]) and in data set [2] (setting [14]) were 11% and 22%, respectively. Further, the “effect on the proliferative activity of A431 cells (in words)” value in data set [2] is recorded as “no effect on stimulation of proliferative activity”.
Turning to “[Pd2(μ-S-L-Cys)(μ-S-L-CysH)(2,2′-dipy)2](NO3)3.4.5H2O [C—Pd]”, the solubility entry in data set [3] (in acetone) is given as “virtually insoluble”; in data set [3] (in dichloromethane), “virtually insoluble”; in data set [3] (in ethanol), “less soluble”; in data set [3] (in water), “readily soluble”. The Total cells is 10000 mL⁻¹ in data set [1] (setting [12]), 32300 mL⁻¹ in data set [2] (setting [13]) and 36100 mL⁻¹ in data set [2] (setting [14]). The “Proportion of dead cells” value in data set [2] (setting [13]) turned out to be 8%; in data set [2] (setting [14]), 12%. For the same compound, the “effect on the proliferative activity of A431 cells (in words)” value in data set [2] is recorded as “stimulates the proliferative activity”.
